Laboratory results published in patent US5925627A, “Use of NK-1 receptor antagonists for treating movement disorders” (Merck Sharp & Dohme Ltd., priority 1996, dated 1999).
Read-outs that look alike come from different tables or passages of the source.

How the values were obtained:
[1] = tested on: NK-1 receptor (foot tapping induced by NK-1 agonist GR73632); test: Gerbil Foot-Tapping (Assay 2); format: in vivo, Mongolian gerbil; settings: Meriones unguiculatus, iv
Text: CNS-penetrant NK-1 receptor antagonists for use in the present invention can be identified by their ability to inhibit foot tapping in gerbils induced by anxiogenic agents (such as pentagastrin) or central infusion of NK-1 receptor agonists such as GR73632, or caused by aversive stimulation such as foot shock or single housing, based on the method of Rupniak & Williams, Eur. J. Pharmacol., 1994, 265, 179.
Male or female Mongolian gerbils (35-70 g) are anaesthetised by inhalation of an isoflurane/oxygen mixture to permit exposure of the jugular vein in order to permit administration of test compounds or vehicle in an injection volume of 5 ml/kg i.v. Alternatively, test compounds may be administered orally or by subcutaneous or intraperitoneal routes. A skin incision is then made in the midline of the scalp to expose the skull.

[2] = tested on: separation-induced vocalisations by guinea-pig pups; test: animal or person; settings: Cavia porcellus, po, 4 h, read-out: guinea-pig vocalisation (4 hr. pre-treatment): ID50
Procedure: Male and female guinea-pigs pups are housed in family groups with their mothers and littermates throughout the study. Experiments are commenced after weaning when the pups are 2 weeks old. Before entering an experiment, the pups are screened to ensure that a vigorous vocalisation response is reproducibly elicited following maternal separation. The pups are placed individually in an observation cage (55 cm×39 cm×19 cm) in a room physically isolated from the home cage for 15 minutes and the duration of vocalisation during this baseline period is recorded. […] On test days each pup receives an oral dose or an s.c. or i.p. injection of test compound or vehicle and is then immediately returned to the home cage with its mother and siblings for 30 to 60 minutes (or for up to 4 hours following an oral dose, dependent upon the oral pharmacokinetics of the test compound) before social isolation for 15 minutes as described above. […] Between 6 and 8 animals receive each test compound at each dose tested.

Structure (SMILES): C[C@@H](O[C@H]1OCCN(Cc2n[nH]c(=O)[nH]2)[C@H]1c1ccc(F)cc1)c1cc(C(F)(F)F)cc(C(F)(F)F)c1 [2-(R)-(1-(R)-(3,5-bis(trifluoromethyl)phenyl)-ethoxy)-3-(S)-(4-fluorophenyl)-4-(3-(5-oxo-1H, 4H-1,2,4-triazolo)methyl)-morpholine]
- ED50 ([1]; 5 min, i.v. immediately prior to GR73632 challenge, read-out: gerbil foot-tapping (5 mins.): ID50): 0.36 mg/kg
- ED50 ([1]; 24 hrs., i.v. 24 hours prior to central NK1 agonist challenge, read-out: gerbil foot-tapping (24 hrs.): ID50): 0.33 mg/kg
- ED50 [2]: 0.73 mg/kg
